The text below walks through data of patent US20080142759A1, “Pyridine N-Oxide Based Azo Dyes And Their Metal Complexes For Use In Optical Layers For Optical Data Recording” (priority 2004, published 2008).

This series is described as follows: Thermal decomposition by DSC. It counts as physicochemical. An excerpt: Sharp threshold of thermal decomposition within the required temperature range characterizes the new pyridine N-oxide based azo dyes which are assumed to be desirable for the application in optical layers for optical data recording.
(In DSC, transitions show as peaks or steps in heat flow.)

As to `CCN1C(O)=C(/N=N/c2c(O)ccc[n+]2[O-])C=CC1=C(C#N)C#N` [(12)], the “DSC: dec. at” value (DSC) was 260 °C. Besides, under “Table 1 summary”, the Dec.Pt came out at 260 °C.
